{
  "source": "patent US5892029A",
  "about": "“3-hydroxy-2(1H)-pyridinone chelating agents” (priority 1997, dated 1999)",
  "key": {"[1]": {"test": "Promoting excretion of 237Np(V) in mice by injected ligands (Table 5)", "assay_type": "in vivo", "excerpt": "(§1) Animal studies were completed using methods detailed in Radiation Protection Dosimetry, 1994, 53, 305: P. W. Durbin et al., \"In Vivo Chelation of Am(III), Pu(IV), Np(V) and U(VI) in Mice by TREN-(Me-3,2-HOPO)\"; Radiation Protection Dosimetry, 1989, 17, 351: P. W. Durbin et al., \"Removal of ^238 Pu(IV) from Mice by Polycatechoylate, -Hydroxamate or -Hydroxypyridinonate Ligands\"; Radiation Research, 1984, 99, 85: P. W. Durbin et al., \"Specific Sequestering Agents for the Actinides . . . \"; Radiation Research, 1984, 99, 106: P. W. Durbin et al., \"Removal of Pu and Am from Beagles and Mice . . . \"; Radiation Research, 1980, 81, 170: R. D. Lloyd et al., and P. W. Durbin et al., \"Specific Sequestering Agents for the Actinides . . . \". The foregoing articles are hereby incorporated by reference.\nThe ^237 Np(V) was obtained from J. Bucher of the LBL Actinide Chemistry group as NpO2 Cl in 0.1M HCl. It was diluted to the desired radioactivity concentration in 0.14M NaCl and the pH was adjusted to about 4.5 with NaOH just before use.\n(§2) One of the novel chelating agents of the present invention, TREN-Me-3,2-HOPO, was also tested for effectiveness in promoting excretion of ^241 AM(III), ^237 Np(V), and ^232 U(VI) by injection into mice, as follows: Mice, in groups of five, each received an intravenous injection of (a) 1100 Bq of ^241 Am(III) in 0.2 mL of citrate buffer, (b) 150 Bq of ^232 UO2 Cl2 plus 3.6 mg of ^235 UO2 Cl2 in 0.2 mL of saline, or (c) 200 Bq of ^237 NpO2 Cl ([…] of ^237 NPO2 Cl) in 0.2 mL of saline. Three to five minutes later, 30 μmol/kg of TREN-Me-3,2-HOPO was injected intraperitoneally in 0.5 mL of saline. The mice were killed 24 hours after the actinide injection, frozen, and dissected after partial thawing. The skeleton, soft tissues, and separated excreta were radioanalyzed by counting the ^241 Am gamma rays, or the alpha particles emitted by ^237 Np or ^232 U (and its ingrowing daughters). Removal of those actinides from mice by injected TREN-Me-3,2-HOPO is summarized in Table 5, which also includes data for mice similarly treated with CaNa3 -DTPA and for actinide-injected controls. […] The structure of Am(III)-TREN-Me-3,2-HOPO is considered to resemble that of the Gd(III) complexes (see Example 20). Complexation of the fraction of Np(V) that is reduced in vivo to Np(IV) is considered to resemble that of Pu(IV). Complexation of U(VI) is considered to take place through binding to UO2^2+.\n(§3) ^a Ligands (30 μmol/kg) i.p. at 3 to 5 min after actinide i.v.;"}, "[2]": {"test": "Promoting excretion of U(VI) in mice by injected ligands (Table 5)", "assay_type": "in vivo", "excerpt": "as §1\nThe ^232 U was obtained from the Isotope Products Laboratory, Burbank, Calif., and ^234,235 U was obtained as U metal from long-held LBL storage. The two U sources were combined and dissolved in 6N HNO3, dried, and redissolved in 0.1N HCl. The daughter radioactivities were removed by elution from a Dowex-50X4 column (22 cm length, 0.7 cm diameter, 1.5 mL min^-1 flow rate) with 3.2N HCl. The U fractions (previously identified by a trial run with ^234,235 U alone) were combined, dried, and redissolved in 0.14M NaCl at pH 5.5.\nas §2, §3"}, "[3]": {"test": "Promoting excretion of 238Pu(IV) in mice by orally administered ligands (Table 4)", "assay_type": "in vivo", "details": "30 μmol/kg by gavage", "excerpt": "as §1\nRadionuclides used in the animal studies came from a variety of sources. […]\nThe novel chelating agents of the present invention were tested for their effectiveness in promoting excretion of ^238 Pu(IV) by oral administration to mice as follows. […] The ^238 Pu(IV) in skeleton, soft tissues, and separated excreta was determined by counting the ^234 U L x-rays. […]"}, "[4]": {"test": "Fe(III) complex formation constants and pM", "assay_type": "binding", "details": "pH 7.4; chelator 10 and metal ion 1 μM", "excerpt": "The new HOPO monomers display high affinity for ferric ions. For example, 1-methyl-4(1-propylcarbamoyl)-3-hydroxy-2(1H)-pyridinone (Formula 9C, backbone=n-propyl, R'=H, R1 =methyl) has overall complex binding constants on the order of 10^28.7 M-3 for Fe(III). However, because of the 3:1 stoichiometry of the bidentate monomer/Fe complex, its stability is strongly dependent on its concentration (by the 3rd power). Generally, the pM concept was used to define the concentration of unchelated metal ion at physiological pH (7.4), and at chelator and metal ion concentrations (10 and 1 μM, respectively) which are those expected in the plasma of a chelator-treated patient. […] Since the multidentate 3,2-HOPO ligands have higher pM values than their bidentate analogs, they have stronger scavenging power for iron and actinides in vivo. For example, the bidentate compound 1-methyl-4(1-propylcarbamoyl)-3-hydroxy-2(1H)-pyridinone has a pM of 19.26 for Fe(III), while the hexadentate compound TREN-Me-3,2-HOPO (Formula 12, m=1) has a pM of 26.69 for Fe(III)."}, "[5]": {"test": "Promoting excretion of 241Am(III) in mice by injected ligands (Table 5)", "assay_type": "in vivo", "excerpt": "as §1\nRadionuclides used in the animal studies came from a variety of sources. The ^238 Pu(IV) citrate and ^241 Am(III) citrate solutions were prepared for animal injection by 8- to 10-fold dilution with 0.14M NaC1 (pH 4) of concentrated stock solutions (0.08M sodium citrate buffer) that had been held in frozen storage at Lawrence Berkeley Laboratory (hereinafter LBL) for several years. [The ^238 Pu(IV) was originally obtained from D. R. Atherton at the University of Utah Radiobiology Laboratory, Salt Lake City. The ^241 Am(III) solution had been obtained many years earlier from the LBL Actinide Chemistry group.]\nas §2, §3"}, "[6]": {"assay_type": "in vivo, mice", "details": "for body weight / plasma urea N: mean ± SD", "method": "The test of acute toxicity of these novel ligands was carried out as follows. […] The ligand was dissolved in 0.5 to 1.0 ml of saline at pH 7 to 8. After a period of observation, the mice were killed, selected tissues were removed and fixed for histopathological examination,and unusual findings at autopsy were recorded."}, "[7]": {"test": "Chemical and physical properties (solubility, pKa, pH, hygroscopicity)", "assay_type": "physicochemical"}, "[8]": {"details": "30 μmol/kg i.p. at 3 to 5 min after actinide i.v."}, "[9]": {"details": "30 μmol/kg i.p. at 3 to 5 min after actinide i.v., pooled"}, "[10]": {"details": "protocol I: 100 μmol/kg × 10 daily i.p., 11 d"}, "[11]": {"details": "protocol I: 100 μmol/kg × 10 daily i.p., 21 d"}, "[12]": {"details": "protocol II: 500 μmol/kg × 2 in 8 h i.p., 8 d"}},
  "note": "“Also recorded” adds a separate entry of the source. Where two headings read alike, the source gives them in different places.",
  "data": [
    {"smiles": "Cn1ccc(C(=O)NCCN(CCNC(=O)c2ccn(C)c(=O)c2O)CCNC(=O)c2ccn(C)c(=O)c2O)c(O)c1=O", "note": "[TREN-Me-3,2-HOPO]", "values": [
      {"measurement": "reduction of Np content (in words)", "setting": "[1]; 30 μmol/kg i.p.", "result": "reduced the body content of all three actinides to a significantly greater degree than CaNa3 -DTPA; also recorded: the Np content of the soft tissues was significantly reduced"},
      {"measurement": "Np(V) in liver at 24 h", "setting": "[1]; [8]", "result": "3.8 ± 5.7% of injected actinide"},
      {"measurement": "Np(V) in skeleton at 24 h", "setting": "[1]; [8]", "result": "34 ± 4.5% of injected actinide"},
      {"measurement": "Np(V) in soft tissue at 24 h", "setting": "[1]; [8]", "result": "3.1 ± 1.1% of injected actinide"},
      {"measurement": "Np(V) in whole body at 24 h", "setting": "[1]; [8]", "result": "42 ± 11% of injected actinide"},
      {"measurement": "Np(V) excreta: feces and GI contents", "setting": "[1]; [9]", "result": "17% of injected actinide"},
      {"measurement": "Np(V) excreta: urine 0-24 h", "setting": "[1]; [9]", "result": "40% of injected actinide"},
      {"measurement": "Np(V) in kidneys at 24 h", "setting": "[1]; [9]", "result": "1.0% of injected actinide"},
      {"measurement": "reduction of U content (in words)", "setting": "[2]; 30 μmol/kg i.p.", "result": "reduced the body content of all three actinides to a significantly greater degree than CaNa3 -DTPA; also recorded: more than one-half of the U burden in the kidneys was removed"},
      {"measurement": "U(VI) in kidneys at 24 h", "setting": "[2]; [8]", "result": "1.6 ± 0.3% of injected actinide"},
      {"measurement": "U(VI) in liver at 24 h", "setting": "[2]; [8]", "result": "0.6 ± 0.3% of injected actinide"},
      {"measurement": "U(VI) in skeleton at 24 h", "setting": "[2]; [8]", "result": "16 ± 2.4% of injected actinide"},
      {"measurement": "U(VI) in soft tissue at 24 h", "setting": "[2]; [8]", "result": "1.6 ± 0.3% of injected actinide"},
      {"measurement": "U(VI) in whole body at 24 h", "setting": "[2]; [8]", "result": "9.4 ± 6.0% of injected actinide"},
      {"measurement": "U(VI) excreta: feces and GI contents", "setting": "[2]; [9]", "result": "2.3% of injected actinide"},
      {"measurement": "U(VI) excreta: urine 0-24 h", "setting": "[2]; [9]", "result": "70% of injected actinide"},
      {"measurement": "effectiveness of Pu removal, oral (in words)", "setting": "[3]", "result": "the most effective both (by oral and injection) cases"},
      {"measurement": "pM for Fe(III)", "setting": "[4]", "result": 26.69},
      {"measurement": "reduction of Am content (in words)", "setting": "[5]; 30 μmol/kg i.p.", "result": "reduced the body content of all three actinides to a significantly greater degree than CaNa3 -DTPA; also recorded: the Am content of all tissues was greatly reduced"},
      {"measurement": "Am(III) in liver at 24 h", "setting": "[5]; [8]", "result": "1.0 ± 0.6% of injected actinide"},
      {"measurement": "Am(III) in skeleton at 24 h", "setting": "[5]; [8]", "result": "8.1 ± 6% of injected actinide"},
      {"measurement": "Am(III) in soft tissue at 24 h", "setting": "[5]; [8]", "result": "1.6 ± 0.6% of injected actinide"},
      {"measurement": "Am(III) in whole body at 24 h", "setting": "[5]; [8]", "result": "11 ± 1.4% of injected actinide"},
      {"measurement": "Am(III) excreta: feces and GI contents", "setting": "[5]; [9]", "result": "8% of injected actinide"},
      {"measurement": "Am(III) excreta: urine 0-24 h", "setting": "[5]; [9]", "result": "51% of injected actinide"},
      {"measurement": "Am(III) in kidneys at 24 h", "setting": "[5]; [9]", "result": "0.2% of injected actinide"},
      {"measurement": "body weight", "setting": "[6]; [10]", "result": "102 ± 1", "unit": "percent control"},
      {"measurement": "plasma urea N", "setting": "[6]; [10]", "result": "112 ± 10", "unit": "percent control"},
      {"measurement": "no. of survivors", "setting": "[6]; protocol I: 100 μmol/kg × 10 daily i.p., 11 d, of 5 mice", "result": 5},
      {"measurement": "body weight", "setting": "[6]; [11]", "result": "106 ± 4", "unit": "percent control"},
      {"measurement": "plasma urea N", "setting": "[6]; [11]", "result": "120 ± 9", "unit": "percent control"},
      {"measurement": "no. of survivors", "setting": "[6]; protocol I: 100 μmol/kg × 10 daily i.p., 21 d, of 5 mice", "result": 5},
      {"measurement": "body weight", "setting": "[6]; [12]", "result": "101 ± 4", "unit": "percent control"},
      {"measurement": "plasma urea N", "setting": "[6]; [12]", "result": "119 ± 15", "unit": "percent control"},
      {"measurement": "no. of survivors", "setting": "[6]; protocol II: 500 μmol/kg × 2 in 8 h i.p., 8 d, of 19 (TREN) or 10 (H(2,2)) mice", "result": 19}
    ]},
    {"smiles": "CCCNC(=O)c1ccn(C)c(=O)c1O", "note": "[3-hydroxy-1-methyl-4(1-propylcarbamoyl)-2(1H)-pyridinone]", "values": [
      {"measurement": "solubility (in words)", "setting": "[7]", "result": "very soluble in water as well as organic solvents"},
      {"measurement": "pM for Fe(III)", "setting": "[4]", "result": 19.26}
    ]}
  ]
}
